For one data set, the target named is α2 receptors. Put plainly: in vitro action on the α2 receptors, determined in respect of [^3 H]-Clonidine. Format: binding. An excerpt: (§1) Bremner, Eur. J. Pharmacol 55, 323 (1979) and D. C. U. Prichard et al, Mol. Pharmacol 13, 454 (1977), while in vivo they seem to have a low toxicity and a good and durable anti-hypertensive activity, determined in the SHR rat by oral route, with the method reported by J Pfeffer et al, J. Lab. Clin. Med. 78, 957 (1971).

Data set [1] is described as follows: toxicity, expressed as LD50, oral. The settings on record: in vivo.
The target of a further data set is α1 receptors. Put plainly: in vitro affinity for the α1 receptors, determined in respect of [^3 H]-Prazosin. Format: binding.
From the text: as §1

For the next data set, the system named is SHR rat. Description: anti-hypertensive activity in the SHR rat by oral route (with heart rate). Format: in vivo.
From the text: as §1

The term IC50 denotes the point on the concentration scale where inhibition reaches its midpoint. A high value points to weaker potency in that assay. The LD50 is the dose at which mortality reaches 50%. Read a high LD50 as a less toxic substance.

As to `CC1(C(O)CN2CCC(n3c(=O)[nH]c4ccccc43)CC2)COc2ccccc2O1` (racemic) [1-[2-(2,3-dihydro-2-methyl-1,4-benzodioxin-2-yl)-2-hydroxy-ethyl]-4-piperidinyl]-1,3-dihydro-2H-benzimidazol-2-one], the IC50 is 18 µM on α2 receptors and 0.055 µM at α1 receptors. In data set [1], this compound gave an LD50 of about 1000 mg/kg. Further, in the data set with SHR rat (20 mg/kg/os dosage), the “effect on heart rate” value is reported as “without significantly varying the heart rate”. Besides, the “reduction of the pressure” value in the data set on SHR rat (SHR rat, 20 mg/kg/os dosage) is recorded as 21%.

Consider `COc1cc2nc(N3CCN(CC(O)C4(C)COc5ccccc5O4)CC3)nc(N)c2cc1OC.Cl` (stereo not shown) [1-(4-amino-6,7-dimethoxyquinazolin-2-yl)-4-[2-(2,3-dihydro-2-methyl-1,4-benzodioxin-2-yl)-2-hydroxyethyl]-piperazine hydrochloride], for which the IC50 against α2 receptors is over 10 µM; on α1 receptors, 0.0036 µM. Besides, in data set [1], the LD50 was over 2000 mg/kg. For the same compound, the “effect on heart rate” value in the data set on SHR rat (30 mg/kg/os dosage) is on record as “without significantly modifying the heart rate”. The “reduction in the pressure” value with SHR rat (SHR rat, 30 mg/kg/os dosage) came to 20%.

The values are drawn from patent publication US4948797A, “2,2-disubstitued 2,3-dihydro-1,4-benzodioxin derivatives having hypotensive activity” (Istituto Luso Farmaco d'Italia S.p.A., priority 1988, dated 1990).
